Measured values reported in the supplement of paper PMC13207355.
Counter-ions that a name gives are not always drawn.

Legend:
Conditions in all cases: exposure time: 72 h
FT3469 [1] = normal neural stem cell line; test: phenotypic distance (Euclidean, principal components) from DMSO controls (arbitrary units); higher = stronger morphological change
E34 [2] = patient-derived glioblastoma stem cells of proneural subtype; test: as above
E21 [3] = patient-derived glioblastoma stem cells of mesenchymal subtype; test: as above
E28 [4] = patient-derived glioblastoma stem cells of classical subtype; test: as above
E13 [5] = patient-derived glioblastoma stem cells of classical subtype; test: as above
E57 [6] = patient-derived glioblastoma stem cells of mesenchymal subtype; test: as above
E31 [7] = patient-derived glioblastoma stem cells of proneural subtype; test: as above
FT3469 [8] = test: surviving fraction (nuclei count normalised to DMSO); higher = more cells surviving (less toxic)
E34 [9] = test: as above
E21 [10] = test: as above
E28 [11] = test: as above
E13 [12] = test: as above
E57 [13] = test: as above
E31 [14] = test: as above
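Wherever phenotypic distance (Euclidean, principal components) from DMSO controls is given: cell Painting imaging in 384-well plates, CellProfiler features reduced to at least 20 principal components, Euclidean distance versus same-plate DMSO vehicle wells (0.1% v/v), median over six images per well.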
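Wherever surviving fraction (nuclei count normalised to DMSO) is given: nuclei counted by high-content imaging of Hoechst-stained cells in laminin-coated 384-well plates, relative to 0.1% DMSO vehicle wells, with staurosporine as cell-death control.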

SMILES: COc1cccc2c1C(=O)c1c(O)c3c(c(O)c1C2=O)C[C@@](O)(C(=O)CO)C[C@@H]3O[C@H]1C[C@H](N)[C@H](O)[C@H](C)O1 [Doxorubicin hydrochloride]
- phenotypic distance (FT3469 [1]; 4.1 nM): 1.83
- phenotypic distance (FT3469 [1]; 12.3 nM): 1.46
- phenotypic distance (FT3469 [1]; 37 nM): 1.66
- phenotypic distance (FT3469 [1]; 111.1 nM): 1.6
- phenotypic distance (FT3469 [1]; 333.3 nM): 4.2
- phenotypic distance (FT3469 [1]; 1000 nM): 3
- phenotypic distance (FT3469 [1]; 3000 nM): 8.29
- phenotypic distance (E34 [2]; 4.1 nM): 0.849
- phenotypic distance (E34 [2]; 12.3 nM): 3.53
- phenotypic distance (E34 [2]; 37 nM): 4.3
- phenotypic distance (E34 [2]; 111.1 nM): 3.08
- phenotypic distance (E34 [2]; 333.3 nM): 2.7
- phenotypic distance (E34 [2]; 1000 nM): 5.02
- phenotypic distance (E34 [2]; 3000 nM): 4.21
- phenotypic distance (E21 [3]; 4.1 nM): 1.5
- phenotypic distance (E21 [3]; 12.3 nM): 4.4
- phenotypic distance (E21 [3]; 37 nM): 6.35
- phenotypic distance (E21 [3]; 111.1 nM): 5.11
- phenotypic distance (E21 [3]; 333.3 nM): 5.4
- phenotypic distance (E21 [3]; 1000 nM): 5.92
- phenotypic distance (E21 [3]; 3000 nM): 6.77
- phenotypic distance (E28 [4]; 4.1 nM): 2.14
- phenotypic distance (E28 [4]; 12.3 nM): 2.39
- phenotypic distance (E28 [4]; 37 nM): 2.6
- phenotypic distance (E28 [4]; 111.1 nM): 3.51
- phenotypic distance (E28 [4]; 333.3 nM): 3.16
- phenotypic distance (E28 [4]; 1000 nM): 3.08
- phenotypic distance (E28 [4]; 3000 nM): 5.26
- phenotypic distance (E13 [5]; 4.1 nM): 2.25
- phenotypic distance (E13 [5]; 12.3 nM): 3.82
- phenotypic distance (E13 [5]; 37 nM): 5.4
- phenotypic distance (E13 [5]; 111.1 nM): 6.04
- phenotypic distance (E13 [5]; 333.3 nM): 6.31
- phenotypic distance (E13 [5]; 1000 nM): 6.48
- phenotypic distance (E13 [5]; 3000 nM): 6.01
- phenotypic distance (E57 [6]; 4.1 nM): 1.85
- phenotypic distance (E57 [6]; 12.3 nM): 4.6
- phenotypic distance (E57 [6]; 37 nM): 8.27
- phenotypic distance (E57 [6]; 111.1 nM): 7.23
- phenotypic distance (E57 [6]; 333.3 nM): 7.01
- phenotypic distance (E57 [6]; 1000 nM): 7.35
- phenotypic distance (E57 [6]; 3000 nM): 7.3
- phenotypic distance (E31 [7]; 4.1 nM): 2.91
- phenotypic distance (E31 [7]; 12.3 nM): 2.49
- phenotypic distance (E31 [7]; 37 nM): 2.07
- phenotypic distance (E31 [7]; 111.1 nM): 2.28
- phenotypic distance (E31 [7]; 333.3 nM): 4.77
- phenotypic distance (E31 [7]; 1000 nM): 5.51
- phenotypic distance (E31 [7]; 3000 nM): 5.71
- surviving fraction (FT3469 [8]; 4.1 nM): 0.574
- surviving fraction (FT3469 [8]; 12.3 nM): 0.678
- surviving fraction (FT3469 [8]; 37 nM): 0.598
- surviving fraction (FT3469 [8]; 111.1 nM): 0.582
- surviving fraction (FT3469 [8]; 333.3 nM): 0.234
- surviving fraction (FT3469 [8]; 1000 nM): 0.149
- surviving fraction (FT3469 [8]; 3000 nM): 0.0213
- surviving fraction (E34 [9]; 4.1 nM): 0.738
- surviving fraction (E34 [9]; 12.3 nM): 0.599
- surviving fraction (E34 [9]; 37 nM): 0.502
- surviving fraction (E34 [9]; 111.1 nM): 0.539
- surviving fraction (E34 [9]; 333.3 nM): 0.502
- surviving fraction (E34 [9]; 1000 nM): 0.346
- surviving fraction (E34 [9]; 3000 nM): 0.123
- surviving fraction (E21 [10]; 4.1 nM): 0.799
- surviving fraction (E21 [10]; 12.3 nM): 0.544
- surviving fraction (E21 [10]; 37 nM): 0.428
- surviving fraction (E21 [10]; 111.1 nM): 0.237
- surviving fraction (E21 [10]; 333.3 nM): 0.17
- surviving fraction (E21 [10]; 1000 nM): 0.0999
- surviving fraction (E21 [10]; 3000 nM): 0.0192
- surviving fraction (E28 [11]; 4.1 nM): 0.535
- surviving fraction (E28 [11]; 12.3 nM): 0.403
- surviving fraction (E28 [11]; 37 nM): 0.341
- surviving fraction (E28 [11]; 111.1 nM): 0.163
- surviving fraction (E28 [11]; 333.3 nM): 0.174
- surviving fraction (E28 [11]; 1000 nM): 0.35
- surviving fraction (E28 [11]; 3000 nM): 0.0586
- surviving fraction (E13 [12]; 4.1 nM): 0.639
- surviving fraction (E13 [12]; 12.3 nM): 0.527
- surviving fraction (E13 [12]; 37 nM): 0.409
- surviving fraction (E13 [12]; 111.1 nM): 0.265
- surviving fraction (E13 [12]; 333.3 nM): 0.188
- surviving fraction (E13 [12]; 1000 nM): 0.0799
- surviving fraction (E13 [12]; 3000 nM): 0.0133
- surviving fraction (E57 [13]; 4.1 nM): 0.74
- surviving fraction (E57 [13]; 12.3 nM): 0.411
- surviving fraction (E57 [13]; 37 nM): 0.229
- surviving fraction (E57 [13]; 111.1 nM): 0.172
- surviving fraction (E57 [13]; 333.3 nM): 0.164
- surviving fraction (E57 [13]; 1000 nM): 0.113
- surviving fraction (E57 [13]; 3000 nM): 0.0765
- surviving fraction (E31 [14]; 4.1 nM): 0.425
- surviving fraction (E31 [14]; 12.3 nM): 0.381
- surviving fraction (E31 [14]; 37 nM): 0.269
- surviving fraction (E31 [14]; 111.1 nM): 0.186
- surviving fraction (E31 [14]; 333.3 nM): 0.105
- surviving fraction (E31 [14]; 1000 nM): 0.0519
- surviving fraction (E31 [14]; 3000 nM): 0.0645
